Source: patent US20180298010A1, “PRMT5 INHIBITORS AND USES THEREOF” (Epizyme, Inc., priority 2012, published 2018)

These compounds were tested against T1, PRMT5/MEP50 (Homo sapiens, UniProt O14744) (assay: PRMT5 Biochemical Assay (PRMT5/MEP50 enzyme assay on peptide substrate, 3H-SAM Flashplate)).
T1 construct: Flag-PRMT5; 6His-MEP50
Procedure, shortened: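 FLAG-PRMT5/His-MEP50 from Sf9 cells (4 nM) preincubated 30 min at 25 °C with compound in 20 mM Bicine pH 7.6, 1 mM TCEP, 1% DMSO. Reaction started with 75 nM 3H-SAM on 40 nM biotinylated H4 1-15 peptide, stopped with cold SAM. Bound 3H-peptide counted on streptavidin Flashplates, normalised to DMSO and 100 uM SAH controls.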

T1 sequence (O14744 with tags, fused parts or gaps): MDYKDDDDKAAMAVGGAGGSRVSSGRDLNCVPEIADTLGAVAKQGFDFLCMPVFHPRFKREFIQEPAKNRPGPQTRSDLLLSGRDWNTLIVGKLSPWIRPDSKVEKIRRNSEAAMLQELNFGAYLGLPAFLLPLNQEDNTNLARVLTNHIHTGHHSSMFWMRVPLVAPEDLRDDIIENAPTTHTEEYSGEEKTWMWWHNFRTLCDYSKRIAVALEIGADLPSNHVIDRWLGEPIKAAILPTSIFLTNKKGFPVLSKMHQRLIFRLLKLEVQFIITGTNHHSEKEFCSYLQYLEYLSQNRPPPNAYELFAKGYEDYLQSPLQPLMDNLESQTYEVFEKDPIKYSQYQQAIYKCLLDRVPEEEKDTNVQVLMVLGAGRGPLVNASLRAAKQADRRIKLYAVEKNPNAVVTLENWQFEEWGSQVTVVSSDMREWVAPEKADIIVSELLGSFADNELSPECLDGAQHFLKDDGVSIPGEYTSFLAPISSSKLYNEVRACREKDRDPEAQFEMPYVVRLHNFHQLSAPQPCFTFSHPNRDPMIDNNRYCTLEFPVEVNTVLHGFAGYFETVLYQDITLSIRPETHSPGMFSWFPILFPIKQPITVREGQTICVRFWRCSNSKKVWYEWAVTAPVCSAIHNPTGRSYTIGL
T1 sequence (Q9BQA1 with tags, fused parts or gaps partner): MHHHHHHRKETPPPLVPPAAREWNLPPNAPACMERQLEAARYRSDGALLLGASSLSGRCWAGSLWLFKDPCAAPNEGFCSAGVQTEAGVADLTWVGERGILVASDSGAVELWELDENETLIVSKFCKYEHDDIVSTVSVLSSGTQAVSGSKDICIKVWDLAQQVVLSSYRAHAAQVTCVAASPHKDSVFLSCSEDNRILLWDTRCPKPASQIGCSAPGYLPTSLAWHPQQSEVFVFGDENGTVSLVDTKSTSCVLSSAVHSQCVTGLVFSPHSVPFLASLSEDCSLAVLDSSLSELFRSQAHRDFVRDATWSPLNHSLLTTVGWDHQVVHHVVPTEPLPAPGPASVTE

Row | Compound | IC50
1 | COc1ccc(-c2cccc(OCC(O)CN3CCc4ccccc4C3)c2)cc1Cl (centres unmarked) [Compound 168] | 101 to 1000 nM
2 | CC(=O)Nc1cccc(-c2cccc(OCC(O)CN3CCc4ccccc4C3)c2)c1 (centres unmarked) [Compound 169] | 101 to 1000 nM
3 | OC(COc1cccc(-c2csc3ccccc23)c1)CN1CCc2ccccc2C1 (centres unmarked) [Compound 170] | 101 to 1000 nM
4 | NC(=O)c1cccc(-c2cccc(OCC(O)CN3CCc4ccccc4C3)c2)c1 (centres unmarked) [Compound 171] | 101 to 1000 nM
5 | N#Cc1cccc(-c2cccc(OCC(O)CN3CCc4ccccc4C3)c2)c1 (centres unmarked) [Compound 172] | 101 to 1000 nM
6 | OC(COC1CCN(c2ccccc2)C1)CN1CCc2ccccc2C1 (centres unmarked) [Compound 175] | 1000 to 10000 nM
7 | COc1ccc2c(c1)CN(CC(O)COc1cccc(-c3ccc4ncn(C)c4c3)c1)CC2 (centres unmarked) [Compound 177] | 10000 to 40000 nM
8 | CCC1c2ccccc2CCN1CC(O)COc1cccc(-c2ccc3ncn(C)c3c2)c1 (centres unmarked) [Compound 179] | 101 to 1000 nM
9 | O=C(c1cncc(-c2cccc(OCC(O)CN3CCc4ccccc4C3)c2)c1)N1CCCC1 (centres unmarked) [Compound 181] | 1000 to 10000 nM
10 | CNC(=O)c1cncc(-c2cccc(OCC(O)CN3CCc4ccccc4C3)c2)c1 (centres unmarked) [Compound 182] | 1000 to 10000 nM
11 | Cn1cnc(C(=O)Nc2cccc(OCC(O)CN3CCc4ccccc4C3)c2)c1 (centres unmarked) [Compound 183] | 1000 to 10000 nM
12 | O=C(Nc1cccc(OCC(O)CN2CCc3ccccc3C2)c1)c1ccnnc1 (centres unmarked) [Compound 184] | 1000 to 10000 nM
13 | O=C(c1cccc(-c2cccc(OCC(O)CN3CCc4ccccc4C3)c2)c1)N1CCCC1 (centres unmarked) [Compound 185] | 101 to 1000 nM
14 | CNC(=O)c1cccc(-c2cccc(OCC(O)CN3CCc4ccccc4C3)c2)c1 (centres unmarked) [Compound 186] | 101 to 1000 nM
15 | Cc1cn(C)c2cc(-c3cccc(OCC(O)CN4CCc5ccccc5C4)c3)ccc12 (centres unmarked) [Compound 187] | 101 to 1000 nM
16 | OC(COc1cccc(-c2ccc3ncoc3c2)c1)CN1CCc2ccccc2C1 (centres unmarked) [Compound 188] | 101 to 1000 nM
17 | OC(COc1cccc(-c2ccncc2F)c1)CN1CCc2ccccc2C1 (centres unmarked) [Compound 190] | 1000 to 10000 nM
18 | Cn1cnc2cnc(-c3cccc(OCC(O)CN4CCc5ccccc5C4)c3)nc21 (centres unmarked) [Compound 191] | 101 to 1000 nM
19 | Cc1cccc2c1CN(CC(O)COc1cccc(-c3ccc4ncn(C)c4c3)c1)CC2 (centres unmarked) [Compound 192] | 1000 to 10000 nM
20 | OC(COc1cccc(N2CCc3[nH]nc(-c4ccccc4)c3C2)c1)CN1CCc2ccccc2C1 (centres unmarked) [Compound 194] | 1000 to 10000 nM
21 | Cn1cncc1C(=O)Nc1cccc(OCC(O)CN2CCc3ccccc3C2)c1 (centres unmarked) [Compound 195] | 1000 to 10000 nM
22 | CN(C(=O)c1cnco1)c1cccc(OCC(O)CN2CCc3ccccc3C2)c1 (centres unmarked) [Compound 196] | 1000 to 10000 nM
23 | CN(C(=O)c1cn(C)cn1)c1cccc(OCC(O)CN2CCc3ccccc3C2)c1 (centres unmarked) [Compound 197] | 1000 to 10000 nM
24 | CN(C(=O)c1cocn1)c1cccc(OCC(O)CN2CCc3ccccc3C2)c1 (centres unmarked) [Compound 198] | 10000 to 40000 nM
25 | OC(COc1cccc(-c2cc(OC(F)(F)F)ccc2Cl)c1)CN1CCc2ccccc2C1 (centres unmarked) [Compound 200] | 101 to 1000 nM
26 | CC(C)Oc1ccc(F)c(-c2cccc(OCC(O)CN3CCc4ccccc4C3)c2)c1 (centres unmarked) [Compound 201] | 101 to 1000 nM

Row | Compound | IC50
27 | CN(C(=O)c1cncn1C)c1cccc(OCC(O)CN2CCc3ccccc3C2)c1 (centres unmarked) [Compound 203] | 1000 to 10000 nM
28 | CN(C(=O)c1cccnc1)c1cccc(OCC(O)CN2CCc3ccccc3C2)c1 (centres unmarked) [Compound 204] | 1000 to 10000 nM
29 | Cn1ncc2ccc(-c3cc(NCC(O)CN4CCc5ccccc5C4)ncn3)cc21 (centres unmarked) [Compound 205] | 101 to 1000 nM
30 | CNC(=O)Cn1ccc2cnc(-c3cccc(OCC(O)CN4CCc5ccccc5C4)c3)nc21 (centres unmarked) [Compound 206] | 1000 to 10000 nM
31 | Cn1cnc2ccc(-c3cc(NCC(O)CN4CCc5ccccc5C4)ncn3)cc21 (centres unmarked) [Compound 207] | 101 to 1000 nM
32 | Cn1cnc2ccc(-c3cccc(OCC(O)CN4CCc5ccccc5C4(C)C)c3)cc21 (centres unmarked) [Compound 211] | 1000 to 10000 nM
33 | Cc1ccc2c(c1)CN(CC(O)COc1cccc(-c3ccc4ncn(C)c4c3)c1)CC2 (centres unmarked) [Compound 212] | 1000 to 10000 nM
34 | Cc1cccc2c1CCN(CC(O)COc1cccc(-c3ccc4ncn(C)c4c3)c1)C2 (centres unmarked) [Compound 213] | 1000 to 10000 nM
35 | Cn1cnc2ccc(-c3cccc(OCC(O)CN4CCc5ccc(Cl)cc5C4)c3)cc21 (centres unmarked) [Compound 214] | 1000 to 10000 nM
36 | Cn1cnc2ccc(-c3cccc(OCC(O)CN4CCc5c(Cl)cccc5C4)c3)cc21 (centres unmarked) [Compound 215] | 1000 to 10000 nM
37 | Cn1ncc2c1CN(c1cccc(OCC(O)CN3CCc4ccccc4C3)c1)CC2 (centres unmarked) [Compound 216, 1-(3,4-dihydroisoquinolin-2(1H)-yl)-3-(3-(1-methyl-4,5-dihydro-1H-pyrazolo[3,4-c]pyridin-6(7H)-yl)phenoxy)propan-2-ol] | 101 to 1000 nM
38 | Cn1cnc2ccc(-c3cc(NCC(O)CN4CCc5ccccc5C4)ccn3)cc21 (centres unmarked) [Compound 217] | 101 to 1000 nM
39 | O=C(Cn1ccc2cnc(-c3cccc(OCC(O)CN4CCc5ccccc5C4)c3)nc21)N1CCOCC1 (centres unmarked) [Compound 222] | 101 to 1000 nM
40 | Cn1cc2ccc(-c3cc(NCC(O)CN4CCc5ccccc5C4)ncn3)cc2n1 (centres unmarked) [Compound 224] | 101 to 1000 nM
41 | CC(=O)N1CCC(n2cnc3ccc(-c4cccc(OCC(O)CN5CCc6ccccc6C5)c4)cc32)CC1 (centres unmarked) [Compound 228, 1-(4-(6-(3-(3-(3,4-dihydroisoquinolin-2(1H)-yl)-2-hydroxypropoxy)phenyl)-1H-benzo[d]imidazol-1-yl)piperidin-1-yl)ethanone] | 101 to 1000 nM
42 | O=C(Cn1ccc2cnc(-c3cccc(OCC(O)CN4CCc5ccccc5C4)c3)nc21)N1CCCC1 (centres unmarked) [Compound 231] | 101 to 1000 nM
43 | O=C(Cn1ccc2cnc(-c3cccc(OCC(O)CN4CCc5ccccc5C4)c3)nc21)N1CCCCC1 (centres unmarked) [Compound 232] | 101 to 1000 nM
44 | Cn1ccc2ccc(-c3cc(NCC(O)CN4CCc5ccccc5C4)ncn3)cc21 (centres unmarked) [Compound 237] | 101 to 1000 nM
45 | CC(=O)N1CCC(n2cnc3ccc(-c4ccnc(NCC(O)CN5CCc6ccccc6C5)c4)cc32)CC1 (centres unmarked) [Compound 242] | 101 to 1000 nM
46 | CC(=O)N1CCC(n2cnc3cnc(-c4cccc(OCC(O)CN5CCc6ccccc6C5)c4)nc32)CC1 (centres unmarked) [Compound 243] | 101 to 1000 nM
47 | CN1CCN(C(=O)Cn2ccc3cnc(-c4cccc(OCC(O)CN5CCc6ccccc6C5)c4)nc32)CC1 (centres unmarked) [Compound 244] | 101 to 1000 nM
48 | Cn1ncc2cnc(-c3cccc(OCC(O)CN4CCc5ccccc5C4)c3)cc21 (centres unmarked) [Compound 248, 1-(3,4-dihydroisoquinolin-2(1H)-yl)-3-(3-(1-methyl-1H-pyrazolo[4,3-c]pyridin-6-yl)phenoxy)propan-2-ol] | 101 to 1000 nM
49 | O=C(Cn1cnc2ccc(-c3cccc(OCC(O)CN4CCc5ccccc5C4)c3)cc21)N1CCCCC1 (centres unmarked) [Compound 249] | 101 to 1000 nM
50 | O=C(Cn1cnc2ccc(-c3cccc(OCC(O)CN4CCc5ccccc5C4)c3)cc21)N1CCCC1 (centres unmarked) [Compound 263] | 101 to 1000 nM
51 | O=C(Nc1ccccn1)c1cccc(OCC(O)CN2CCc3ccccc3C2)c1 (centres unmarked) [Compound 267] | 101 to 1000 nM
52 | O=C(Nc1cccnc1)c1cccc(OCC(O)CN2CCc3ccccc3C2)c1 (centres unmarked) [Compound 268] | 1000 to 10000 nM

Row | Compound | IC50
53 | CN1CCN(C(=O)Cn2cnc3ccc(-c4cccc(OCC(O)CN5CCc6ccccc6C5)c4)cc32)CC1 (centres unmarked) [Compound 270] | 101 to 1000 nM
54 | Cn1cnc2ccc(-c3cc(NCC(O)CN4CCc5ccccc5C4)n[nH]3)cc21 (centres unmarked) [Compound 271, 1-(3,4-dihydroisoquinolin-2(1H)-yl)-3-((5-(1-methyl-1H-benzo[d]imidazol-6-yl)-1H-pyrazol-3-yl)amino)propan-2-ol] | 101 to 1000 nM
55 | Cn1cnc2cc(-c3cc(NCC(O)CN4CCc5ccccc5C4)n[nH]3)ccc21 (centres unmarked) [Compound 272, 1-(3,4-dihydroisoquinolin-2(1H)-yl)-3-((5-(1-methyl-1H-benzo[d]imidazol-5-yl)-1H-pyrazol-3-yl)amino)propan-2-ol] | 101 to 1000 nM
56 | O=C(Nc1cc[nH]n1)c1cccc(OCC(O)CN2CCc3ccccc3C2)c1 (centres unmarked) [Compound 274] | 1000 to 10000 nM
57 | COc1c(COCC(O)CN2CCc3ccccc3C2)ccc2ccccc12 (centres unmarked) [Compound 279] | 1000 to 10000 nM
58 | OC(COCc1c(Cl)cccc1Cl)CN1CCc2ccccc2C1 (centres unmarked) [Compound 280] | 1000 to 10000 nM
59 | OC(COCc1ccc(Cl)cc1Cl)CN1CCc2ccccc2C1 (centres unmarked) [Compound 281] | 1000 to 10000 nM
60 | OC(COCc1ccccn1)CN1CCc2ccccc2C1 (centres unmarked) [Compound 282] | 10000 to 40000 nM
61 | OC(COCc1cccnc1)CN1CCc2ccccc2C1 (centres unmarked) [Compound 283] | 10000 to 40000 nM
62 | OC(COCc1ccncc1)CN1CCc2ccccc2C1 (centres unmarked) [Compound 284] | 10000 to 40000 nM
63 | OC(COc1ccc2c(c1)OCO2)CN1CCc2ccccc2C1 (centres unmarked) [Compound 285] | 1000 to 10000 nM
64 | CCCCNCc1cccc(COCC(O)CN2CCc3ccccc3C2)c1 (centres unmarked) [Compound 286] | 101 to 1000 nM
65 | CC(C)(C)OC(=O)N1CCC(OCC(O)CN2CCc3ccccc3C2)C1 (centres unmarked) [Compound 287] | 1000 to 10000 nM
66 | COc1cccc(COCC(O)CN2CCc3ccccc3C2)c1 (centres unmarked) [Compound 288] | 1000 to 10000 nM
67 | CC(C)(C)OC(=O)N1CC(OCC(O)CN2CCc3ccccc3C2)C1 (centres unmarked) [Compound 290] | 1000 to 10000 nM
68 | CC(C)(C)OC(=O)N1CCCC(OCC(O)CN2CCc3ccccc3C2)C1 (centres unmarked) [Compound 291] | 1000 to 10000 nM
69 | CC(C)(C)OC(=O)N1CCC(OCC(O)CN2CCc3ccccc3C2)CC1 (centres unmarked) [Compound 292] | 1000 to 10000 nM
70 | OC(COCC1CCCCC1)CN1CCc2ccccc2C1 (centres unmarked) [Compound 294] | 1000 to 10000 nM
71 | CC(OCC(O)CN1CCc2ccccc2C1)c1cccnc1 (centres unmarked) [Compound 299] | 10000 to 40000 nM
72 | OC(COCC1COc2ccccc2O1)CN1CCc2ccccc2C1 (centres unmarked) [Compound 300] | 101 to 1000 nM
73 | OC(COC1Cc2ccccc2C1)CN1CCc2ccccc2C1 (centres unmarked) [Compound 301] | 1000 to 10000 nM
74 | OC(COC1CCCC1)CN1CCc2ccccc2C1 (centres unmarked) [Compound 302] | 1000 to 10000 nM
75 | OC(COCC1CC1)CN1CCc2ccccc2C1 (centres unmarked) [Compound 303] | 1000 to 10000 nM
76 | OC(COCC1CCCO1)CN1CCc2ccccc2C1 (centres unmarked) [Compound 305] | 10000 to 40000 nM
77 | OC(COCc1ccccc1)CN1CCc2ccccc2C1 (centres unmarked) [Compound 308] | 10000 to 40000 nM
